Measurements: PubChem BioAssay (NCI)
Where “and” joins values, the source holds several entries; their conditions need not be identical. Equal entries are not always repeated.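 Five compound concentrations were applied to cells in 96-well plates for 48 hours; endpoints were derived by simple linear interpolation of the resulting dose-response curve. GI50 = concentration required for 50% inhibition of growth. TGI is the concentration that stops growth completely.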

How the values were obtained:
Experiment in all cases: inhibition of tumour cell growth, NCI panel, 48 h
HCT-116 colon = test system: HCT-116 colon
NCI-H23 lung = test system: NCI-H23 lung
786-0 renal = test system: 786-0 renal
OVCAR-4 ovarian = test system: OVCAR-4 ovarian
MDA-MB-231 breast = test system: MDA-MB-231 breast
OVCAR-8 ovarian = test system: OVCAR-8 ovarian
CCRF-CEM leukemia = test system: CCRF-CEM leukemia
RPMI-8226 leukemia = test system: RPMI-8226 leukemia
NCI/ADR-RES ovarian = test system: NCI/ADR-RES ovarian
SNB-19 CNS = test system: SNB-19 CNS

Structure (SMILES) | GI50 (HCT-116 colon) | TGI (HCT-116 colon) | GI50 (NCI-H23 lung) | TGI (NCI-H23 lung) | GI50 (786-0 renal) | TGI (786-0 renal) | GI50 (OVCAR-4 ovarian) | TGI (OVCAR-4 ovarian) [µM] | GI50 (MDA-MB-231 breast) | TGI (MDA-MB-231 breast) | GI50 (OVCAR-8 ovarian) | TGI (OVCAR-8 ovarian) [µM] | GI50 (CCRF-CEM leukemia) [µM] | TGI (CCRF-CEM leukemia) [µM] | GI50 (RPMI-8226 leukemia) | TGI (RPMI-8226 leukemia) | GI50 (NCI/ADR-RES ovarian) | TGI (NCI/ADR-RES ovarian) | GI50 (SNB-19 CNS) | TGI (SNB-19 CNS) [µM]
CCc1ccc(Oc2c(-c3ccc(OCCc4cccc(C(F)(F)F)c4)cc3O)n[nH]c2C(F)(F)F)cc1 | 1.53 µM | 5.47 µM | 1.53 µM | 5.89 µM | 6.38 µM | 12.9 µM | 2.22 µM | 8.05 | 4.94 µM | 11.1 µM | 5.25 µM | 11.6 | 2.55 | 9.18 | 1.8 µM | 7.55 µM | 5.19 µM | 11.9 µM | 2.69 µM | 9.03
CC(C)(C)N1CC1CNC(=O)C(=O)NCC1CN1C(C)(C)C (stereo not given) |  | 10.8 µM |  | 5.96 µM |  | 4.31 µM |  | 60.2 |  | > 100 µM |  | 14.8 |  | 15.2 |  | > 18.3 µM |  | > 54 µM |  | > 25.5
Cn1c2c(c3ccccc31)CCN1C[C@@H]3CCCC[C@H]3C[C@@H]21 | 3.19 µM | > 31.2 µM | 3.55 µM | > 100 µM | 3.58 µM | 17.5 µM | 4.36 µM | > 100 | 2.88 µM | 8.66 µM | 2.84 µM | > 30.2 | 4.77 | > 100 | 3.06 µM | > 26.3 µM | 0.928 µM | 9.7 µM | 5.15 µM | > 100
CN1C(=O)C(N=Nc2ccc([N+](=O)[O-])cc2)SC1=S (stereo not given) | 3.65 µM and 6.79 µM | 29 µM and 66.3 µM | 3.89 µM and 7.46 µM | 77.1 µM and 76.9 µM | 8.12 µM and 10.7 µM | 80 µM and 58.2 µM | 6.35 µM and 9.5 µM | > 100 | 13.3 µM and 11.7 µM | 51 µM and 44.3 µM | 4.38 µM and 11 µM | > 100 | 6.51 | > 100 | 2.62 µM and 2.09 µM | 52.4 µM and 18 µM | 2.62 µM and 4.58 µM | 64.4 µM and 37 µM | 6.62 µM and 11 µM | > 100
COc1ccc(OC)c(C2=C(c3cn(C)c4ccccc34)C(=O)NC2=O)c1 | > 25 µM | > 25 µM | > 25 µM | > 25 µM | > 25 µM | > 25 µM | > 25 µM | > 25 | > 25 µM | > 25 µM | > 25 µM | > 25 | > 25 | > 25 | > 25 µM | > 25 µM | > 25 µM | > 25 µM | > 25 µM | > 25
NC(=O)c1c[nH]c2ncnc(N)c12 | 45.5 µM | > 100 µM | > 100 µM | > 100 µM | > 100 µM | > 100 µM | 24.1 µM | > 100 | 91.5 µM | > 100 µM | 90.2 µM | > 100 | 29.5 | > 100 | 14.4 µM | 50.7 µM | > 100 µM | > 100 µM | > 100 µM | > 100
CC(C)[C@@]12C[C@@H](OC(=O)COC(=O)c3ccccc3)[C@@](C)(O1)[C@@H]1CC[C@@H](C)[C@H]1[C@@H]2OC(=O)/C=C/c1ccccc1 | > 100 µM | > 100 µM | > 100 µM | > 100 µM | 3.95 µM | > 100 µM | > 63.1 µM | > 100 | > 100 µM | > 100 µM | 0.134 µM | > 100 | > 100 | > 100 | 82.1 µM | > 100 µM | 0.47 µM | > 100 µM | > 100 µM | > 100
COc1cccc(C(=O)NNc2nc(Cl)nc(N3CCN(C(c4ccccc4)c4ccccc4)CC3)n2)c1 | 1.77 µM | 3.73 µM | 2.7 µM | 7.5 µM | 3.4 µM | 13.1 µM | 1.73 µM | 3.44 | 1.88 µM | 3.85 µM | 2.02 µM | 4.53 | 2.23 | 30.4 | > 100 µM | > 100 µM | 2.18 µM | 5.05 µM | 1.88 µM | 3.98
